According to patent US5430062A, “Stilbene derivatives as anticancer agents” (priority 1993, dated 1995):
Like-named read-outs stand apart in the source and are kept apart here.

Key:
MLM melanoma = test: MTT cytotoxicity assay, MLM; conditions: […]
A-549 lung carcinoma = test: MTT cytotoxicity assay, A-549; conditions: Homo sapiens, A549, […]
MCF-7 breast carcinoma = test: MTT cytotoxicity assay, MCF-7; conditions: Homo sapiens, MCF7, […]
[1] = test system: HT-29 colon adenocarcinoma; test: MTT cytotoxicity assay, HT-29; conditions: Homo sapiens, HT-29, […]
SKMEL-5 melanoma = test: MTT cytotoxicity assay, SKMEL-5; conditions: Homo sapiens, SK-MEL-5, […], read-out: Cytotoxicity ED50, SKMEL-5
[2] = test system: five cancer cell cultures; test: MTT cytotoxicity assay, five cancer cell cultures taken together; conditions: for cytotoxicity (in words): five cancer cell lines
tubulin = test: Inhibition of tubulin polymerization (turbidimetry); format: biochemical, bovine
[3] = read-out: Cytotoxicity ED50, MLM
[4] = read-out: Cytotoxicity ED50, A-549
[5] = read-out: Cytotoxicity ED50, MCF-7
[6] = read-out: Cytotoxicity ED50, HT-29
[7] = second series (Tables V-VII, IX), read-out: Inhibition of Tubulin Polymerization IC50 (±S.D.)
[8] = first series (Table VIII and text), 37° C., 20 min, read-out: Tubulin polymerization IC50 (±S.D.)

IC50 (tubulin; [7]) [µM] | Compound | IC50 (MLM melanoma; [3]) [µM] | IC50 (A-549 lung carcinoma; [4]) [µM] | IC50 (MCF-7 breast carcinoma; [5]) [µM] | IC50 [1, 6] [µM] | IC50 (SKMEL-5 melanoma) [µM] | IC50 ([2]; read-out: cytotoxicity ED50, five cancer cell lines) [µM] | IC50 ([2]; read-out: cytotoxicity ED50, in at least three cell lines) [µM] | cytotoxicity (in words) [2] | IC50 ([2]; read-out: cytotoxicity ED50) [µM] | inhibition of tubulin polymerization (in words) (tubulin) | IC50 (tubulin; [8]) [µM] | IC50 (MLM melanoma; read-out: Cytotoxicity ED50, MLM, MLM, MTT, six days) [µM] | IC50 (A-549 lung carcinoma; read-out: Cytotoxicity ED50, A-549, A-549, MTT, six days) [µM] | IC50 (MCF-7 breast carcinoma; read-out: Cytotoxicity ED50, MCF-7, MCF-7, MTT, six days) [µM] | IC50 ([1]; read-out: Cytotoxicity ED50, HT-29, HT-29, MTT, six days) [µM]
 | COc1cc(/C=C\c2ccccn2)cc(OC)c1OC [5k, (Z)-1-(2-Pyridyl)-2-(3,4,5-trimethoxyphenyl)ethene] | > 25 | > 25 | > 25 | > 25 | > 25 | > 10 |  |  |  |  |  |  |  |  | 
 | COc1cc(/C=C/c2ccc(SC)cc2)cc(OC)c1OC [16c] | 7.3 | 0.47 | 0.059 | 0.083 | 0.28 |  | ~0.1 |  |  |  |  |  |  |  | 
 | COc1cc(/C=C\c2ccc(O[Si](C)(C)C(C)(C)C)cc2)cc(OC)c1OC [5m, (Z)-1-[(4-t-Butyldimethylsilyloxy)phenyl]-2-(3,4,5-trimethoxyphenyl)ethene] | 17.2 | 11 | 7.29 | 10.6 | 7.59 |  |  | decreased the activity drastically |  |  |  |  |  |  | 
 | COc1cc(/C=C\c2ccc(O)cc2)cc(OC)c1OC [compound 5o, (Z)-1-(4-Hydroxyphenyl)-2-(3,4,5-trimethoxyphenyl)ethene] | 12.6 | 12.7 | 5.7 | 1.75 | 2.27 |  |  | decreased the activity drastically |  |  |  |  |  |  | 
 | COc1cc(/C=C/c2ccc(C(C)C)cc2)cc(OC)c1OC [16f, (E)-[4-(2-Propyl)phenyl]-2-(3,4,5-trimethoxyphenyl)ethene] | > 25 | 9.8 | 18.4 | 6.8 | 11.1 |  |  |  | ~0.1 |  |  |  |  |  | 
 | COc1cc(/C=C\c2ccc(C(C)C)cc2)cc(OC)c1OC [compound 15f, (Z)-[4-(2-Propyl)phenyl]-2-(3,4,5-trimethoxyphenyl)ethene] | 0.07 | 0.0066 | 0.0014 | 0.0024 | 0.00047 |  |  |  | 0.00047 to 0.07 |  |  |  |  |  | 
18 | CCc1ccc(CCc2cc(OC)c(OC)c(OC)c2)cc1 [17e, 1-(4-Ethylphenyl)-2-(3,4,5-trimethoxyphenyl)ethane] | 2.7 | 0.088 | 0.16 | 0.016 | 0.047 |  |  |  |  |  |  |  |  |  | 
> 40 | COc1ccc(/C=C(/C(=O)O)c2cc(OC)c(OC)c(OC)c2)cc1 [compound 23a, (E)-3-(4-Methoxyphenyl)-2-(3,4,5-trimethoxyphenyl)-prop-2-enoic acid] | > 25 | 13.9 | 12.8 | 8.4 | 9.1 |  |  |  |  |  |  |  |  |  | 
> 40 | COc1ccc(/C(=C\c2cc(OC)c(OC)c(OC)c2)C(=O)O)cc1 [23c, (E)-2-(4-Methoxyphenyl)-3-(3,4,5-trimethoxyphenyl)-prop-2-enoic acid] | > 25 | 5.2 | 1.9 | 5.9 | 2.3 |  |  |  |  |  |  |  |  |  | 
> 40 | COc1ccc(CC2c3cc(OC)c(OC)c(OC)c3CCN2C)cc1 (stereo not shown) [compound 41, 1-(4'-Methoxybenzyl)-5,6,7-trimethoxy-2-methyl-1,2,3,4-tetrahydroisoquinoline] | > 25 | 11.4 | 22.7 | 9.7 | 8.8 |  |  |  |  |  |  |  |  |  | 
> 40 | COc1ccc(C2Cc3cc(OC)c(OC)c(OC)c3C2)cc1 (stereo not shown) [compound 35, 2-(4-Methoxyphenyl)-4,5,6-trimethoxyindane] | > 25 | > 25 | > 25 | 12.8 | 19.5 |  |  |  |  |  |  |  |  |  | 
> 40 | COc1cc(/C=C\c2ccc(C(C)(C)C)cc2)cc(OC)c1OC [compound 15g, (Z)-1-(4-t-Butylphenyl)-2-(3,4,5-trimethoxyphenyl)ethene] | 4.32 | 1.02 | 1.57 | 0.88 | 0.21 |  |  |  |  |  |  |  |  |  | 
 | COc1cc(CCc2cc(OC)c(OC)c(OC)c2)cc(OC)c1 [compound 8s] | > 25 | > 25 | > 25 | > 25 | > 25 |  |  |  |  | lower activity |  |  |  |  | 
> 40 | COc1ccc(C(=O)c2nccc3c(OC)c(OC)c(OC)cc23)cc1 [compound 39, 1-(4'-Methoxybenzoyl)-5,6,7-trimethoxyisoquinoline] | > 25 | > 25 | > 25 | > 25 | > 25 |  |  |  |  |  |  |  |  |  | 
6 | CCCOc1ccc(/C=C\c2cc(OC)c(OC)c(OC)c2)cc1 [compound 15b, (Z)-1-(4-n-Propoxyphenyl)-2-(3,4,5-trimethoxyphenyl)-thene] | 0.065 | 0.039 | 0.66 | 0.028 | 0.014 |  |  |  |  |  |  |  |  |  | 
> 40 | COc1ccc2c(c1)CN1CCc3c(cc(OC)c(OC)c3OC)C1C2 (stereo not shown) [compound 48, 5,8,13,13a-Tetrahedro-2,3,4,10-tetramethoxy-6H-dibenzo-(a,g)quinolizine] | > 25 | > 25 | > 25 | > 25 | > 25 |  |  |  |  |  |  |  |  |  | 
 | COc1ccc(NC(=O)c2cc(OC)c(OC)c(OC)c2)cc1 [11a, 3,4,5-Trimethoxy-N-(4-methoxyphenyl)benzamide] | > 25 | 14.1 | 12.2 | 22.7 | > 25 |  |  |  |  | lower inhibitory activity |  |  |  |  | 
> 40 | COc1ccc(C(=O)c2c3cc(OC)c(OC)c(OC)c3cc[n+]2C)cc1 [compound 40, 1-(4'-Methoxybenzoyl)-5,6,7-trimethoxyisoquinoline Methiodide] | > 25 | > 25 | > 25 | > 25 | > 25 |  |  |  |  |  |  |  |  |  | 
 | COc1ccc(CNc2cc(OC)c(OC)c(OC)c2)cc1 [12c, 4-Methoxy-N-(3,4,5-trimethoxyphenyl)benzylamine] | > 25 | 0.83 | 0.86 | 2.24 | 1.13 |  |  |  |  | lower inhibitory activity | > 50 |  |  |  | 
 | COc1ccc(/C=C/c2cc(OC)c(OC)c(OC)c2)cc1 [compound 6a, (E)-1-(4-Methoxyphenyl)-2-(3,4,5-trimethoxyphenyl)ethene] |  |  |  |  | 0.81 |  |  |  |  |  | > 50 | 2.07 | 1.18 | 1.05 | 1.82
> 40 | COc1ccc(C(Cc2cc(OC)c(OC)c(OC)c2)C(=O)O)cc1 (stereo not shown) [compound 33, 2-(4-Methoxyphenyl)-3-(3,4,5-trimethoxyphenyl)propionic acid] | > 25 | 14.3 | > 25 | 9.4 | 7.4 |  |  |  |  |  |  |  |  |  | 
> 40 | COc1ccc(CC2NCCc3c2cc(OC)c(OC)c3OC)cc1 (stereo not shown) [compound 38, 1-(4'-Methoxybenzyl)-5,6,7-trimethoxy-1,2,3,4-tetrahydroisoquinoline] | > 25 | 19.3 | > 25 | 20.2 | > 25 |  |  |  |  |  |  |  |  |  | 
> 40 | COC(=O)/C(=C/c1cccc(OC)c1)c1cc(OC)c(OC)c(OC)c1 [compound 24b, (E)-Methyl 3-(3-methoxyphenyl)-2-(3,4,5-trimethoxy-phenyl)-prop-2-enoate] | 15.5 | 1.3 | 1.3 | 0.7 | 1.5 |  |  |  |  |  |  |  |  |  | 
> 40 | COc1ccc(C2Cc3cc(OC)c(OC)c(OC)c3C2=O)cc1 (stereo not shown) [compound 34, 2-(4-Methoxyphenyl)-4,5,6-trimethoxyindan-3-one] | > 25 | > 25 | > 25 | > 25 | > 25 |  |  |  |  |  |  |  |  |  | 
15 | COc1ccc(Cc2cc(OC)c(OC)c(OC)c2)cc1 [compound 29, 4-Methoxyphenyl-(3,4,5-trimethoxyphenyl)methane] | 0.13 | 0.15 | 0.019 | 0.013 | 0.012 |  |  |  |  |  |  |  |  |  | 

Compound | IC50 (tubulin; [7]) [µM] | IC50 (MLM melanoma; [3]) [µM] | IC50 (A-549 lung carcinoma; [4]) [µM] | IC50 (MCF-7 breast carcinoma; [5]) [µM] | IC50 [1, 6] [µM] | IC50 (SKMEL-5 melanoma) [µM] | IC50 ([2]; read-out: cytotoxicity ED50, five cancer cell lines) [µM] | IC50 ([2]; read-out: cytotoxicity ED50, in at least three cell lines) [µM] | cytotoxicity (in words) [2] | IC50 ([2]; read-out: cytotoxicity ED50) [µM] | inhibition of tubulin polymerization (in words) (tubulin) | IC50 (tubulin; [8]) [µM] | IC50 (MLM melanoma; read-out: Cytotoxicity ED50, MLM, MLM, MTT, six days) [µM] | IC50 (A-549 lung carcinoma; read-out: Cytotoxicity ED50, A-549, A-549, MTT, six days) [µM] | IC50 (MCF-7 breast carcinoma; read-out: Cytotoxicity ED50, MCF-7, MCF-7, MTT, six days) [µM] | IC50 ([1]; read-out: Cytotoxicity ED50, HT-29, HT-29, MTT, six days) [µM]
COc1ccc2ccc3cc(OC)c(OC)c(OC)c3c2c1 [32b, 2,3,4,6-Tetramethoxyphenanthrene] | > 40 | > 25 | > 25 | > 25 | 1.1 | 12.5 |  |  |  |  |  |  |  |  |  | 
COc1ccc2c(ccc3cc(OC)c(OC)c(OC)c32)c1 [32c, 2,3,4,7-Tetramethoxyphenanthrene] | > 40 | > 25 | > 25 | > 25 | > 25 | > 25 |  |  |  |  |  |  |  |  |  | 
CCOc1ccc(/C=C\c2cc(OC)c(OC)c(OC)c2)cc1 [compound 15a, (Z)-1-(4-Ethoxyphenyl)-2-(3,4,5-trimethoxyphenyl)ethene] | 2.7 | 0.029 | 0.0016 | 0.096 | 0.0018 | 0.0025 |  |  |  |  |  |  |  |  |  | 
